Reference: PMC3469757 (Journal of medicinal chemistry, 2012)

How the values were obtained:
human TRPV1 [1] = molecular target: T1, human TRPV1 (Homo sapiens, UniProt Q8NER1); experiment: pH assay; assay type: cell-based; details: read-out: IC50 [pH]; hTRPV1 in CHO cells, activator pH 6.0 to 6.3
human TRPV1 [2] = molecular target: T1, human TRPV1; experiment: Capsaicin assay; assay type: cell-based; details: hTRPV1 in CHO cells, versus compound 2

T1 sequence (Q8NER1 whole entry): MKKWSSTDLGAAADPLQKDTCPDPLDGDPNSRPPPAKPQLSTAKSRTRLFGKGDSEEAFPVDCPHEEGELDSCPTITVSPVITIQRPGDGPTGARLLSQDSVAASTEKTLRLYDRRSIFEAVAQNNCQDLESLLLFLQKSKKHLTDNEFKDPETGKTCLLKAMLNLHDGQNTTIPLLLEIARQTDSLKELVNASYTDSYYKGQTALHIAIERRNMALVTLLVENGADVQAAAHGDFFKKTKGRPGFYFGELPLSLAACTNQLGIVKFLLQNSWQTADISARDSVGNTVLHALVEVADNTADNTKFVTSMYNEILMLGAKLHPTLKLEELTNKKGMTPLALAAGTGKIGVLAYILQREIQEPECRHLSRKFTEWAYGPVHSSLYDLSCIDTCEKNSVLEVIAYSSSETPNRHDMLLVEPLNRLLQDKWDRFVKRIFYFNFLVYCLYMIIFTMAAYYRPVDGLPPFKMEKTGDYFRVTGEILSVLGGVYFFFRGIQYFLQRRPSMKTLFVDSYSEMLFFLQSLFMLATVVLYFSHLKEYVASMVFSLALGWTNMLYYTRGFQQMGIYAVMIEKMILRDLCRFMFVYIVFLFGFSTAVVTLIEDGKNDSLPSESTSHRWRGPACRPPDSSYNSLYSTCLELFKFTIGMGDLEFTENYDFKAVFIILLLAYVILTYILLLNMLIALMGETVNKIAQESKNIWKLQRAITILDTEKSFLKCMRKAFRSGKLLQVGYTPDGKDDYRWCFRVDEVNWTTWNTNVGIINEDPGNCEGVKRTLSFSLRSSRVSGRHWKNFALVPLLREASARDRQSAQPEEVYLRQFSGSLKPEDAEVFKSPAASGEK

SMILES	IC50 (human TRPV1 [1]) [µM]	fold more potent than parent 2 for capsaicin antagonism (human TRPV1 [2]) [fold]
CC(C(=O)NCc1ccc(C(F)(F)F)nc1N1CCC(=O)CC1)c1ccc(NS(C)(=O)=O)c(F)c1 (stereo not shown) [Compound 64, 2-(3-Fluoro-4-(methylsulfonamido)phenyl)-N-((2-(4-oxopiperidin-1-yl)-6-(trifluoromethyl)pyridin-3-yl)methyl)propanamide]	> 10	
CC(C(=O)NCc1ccc(C(F)(F)F)nc1N1CCC(O)CC1)c1ccc(NS(C)(=O)=O)c(F)c1 (stereo not shown) [Compound 65, 2-(3-Fluoro-4-(methylsulfonamido)phenyl)-N-((2-(4-hydroxypiperidin-1-yl)-6-(trifluoromethyl)pyridin-3-yl)methyl)propanamide]	> 10	
CC(C(=O)NCc1ccc(C(F)(F)F)nc1N1CCN(c2ccncc2)CC1)c1ccc(NS(C)(=O)=O)c(F)c1 (stereo not shown) [Compound 92, 2-(3-Fluoro-4-(methylsulfonamido)phenyl)-N-((2-(4-(pyridin-4-yl)piperazin-1-yl)-6-(trifluoromethyl)pyridin-3-yl)methyl)propanamide]	> 10	
CC(C(=O)NCc1ccc(C(F)(F)F)nc1NCc1ccncc1)c1ccc(NS(C)(=O)=O)c(F)c1 (stereo not shown) [Compound 26, 2-(3-Fluoro-4-(methylsulfonamido)phenyl)-N-((2-((pyridin-4-ylmethyl)amino)-6-(trifluoromethyl)pyridin-3-yl)methyl)propanamide]	> 10	
C[C@H](C(=O)NCc1ccc(C(F)(F)F)nc1N1CCC[C@H]1CO)c1ccc(NS(C)(=O)=O)c(F)c1 [Compound 35, (S)-2-(3-Fluoro-4-(methylsulfonamido)phenyl)-N-((2-((S)-2-(hydroxymethyl)pyrrolidin-1-yl)-6-(trifluoromethyl)pyridin-3-yl)methyl)propanamide]	> 10	
C[C@H](C(=O)NCc1ccc(C(F)(F)F)nc1N1CC[C@@H](O)C1)c1ccc(NS(C)(=O)=O)c(F)c1 [Compound 38, (S)-2-(3-Fluoro-4-(methylsulfonamido)phenyl)-N-((2-((R)-3-hydroxypyrrolidin-1-yl)-6-(trifluoromethyl)pyridin-3-yl)methyl)propanamide]	> 10	
CC(C(=O)NCc1ccc(C(F)(F)F)nc1N1CCCCC1)c1ccc(NS(C)(=O)=O)c(F)c1 (stereo not shown) [Compound 45, 2-(3-Fluoro-4-(methylsulfonamido)phenyl)-N-((2-(piperidin-1-yl)-6-(trifluoromethyl)pyridin-3-yl)methyl)propanamide]		46
CC1CCCN1c1nc(C(F)(F)F)ccc1CNC(=O)[C@@H](C)c1ccc(NS(C)(=O)=O)c(F)c1 (stereo partly drawn) [Compound 34, (2S)-2-(3-Fluoro-4-(methylsulfonamido)phenyl)-N-((2-(2-methylpyrrolidin-1-yl)-6-(trifluoromethyl)pyridin-3-yl)methyl)propanamide]	> 10	
CC(C(=O)NCc1ccc(C(F)(F)F)nc1N1CCN(c2ncccc2C(F)(F)F)CC1)c1ccc(NS(C)(=O)=O)c(F)c1 (stereo not shown) [Compound 95, 2-(3-Fluoro-4-(methylsulfonamido)phenyl)-N-((6-(trifluoromethyl)-2-(4-(3-(trifluoromethyl)pyridin-2-yl)piperazin-1-yl)pyridin-3-yl)methyl)propanamide]	> 10	
CC(C(=O)NCc1ccc(C(F)(F)F)nc1N1CCC(N2CCCC2)CC1)c1ccc(NS(C)(=O)=O)c(F)c1 (stereo not shown) [Compound 76, 2-(3-Fluoro-4-(methylsulfonamido)phenyl)-N-((2-(4-(pyrrolidin-1-yl)piperidin-1-yl)-6-(trifluoromethyl)pyridin-3-yl)methyl)propanamide]	> 10	
CC(C(=O)NCc1ccc(C(F)(F)F)nc1NCc1cccnc1)c1ccc(NS(C)(=O)=O)c(F)c1 (stereo not shown) [Compound 25, 2-(3-Fluoro-4-(methylsulfonamido)phenyl)-N-((2-((pyridin-3-ylmethyl)amino)-6-(trifluoromethyl)pyridin-3-yl)methyl)propanamide]	> 10	
CC(C)OC1CCN(c2nc(C(F)(F)F)ccc2CNC(=O)C(C)c2ccc(NS(C)(=O)=O)c(F)c2)CC1 (stereo not shown) [Compound 70, 2-(3-Fluoro-4-(methylsulfonamido)phenyl)-N-((2-(4-isopropoxypiperidin-1-yl)-6-(trifluoromethyl)pyridin-3-yl)methyl)propanamide]	> 10	
CC1CCCN(c2nc(C(F)(F)F)ccc2CNC(=O)C(C)c2ccc(NS(C)(=O)=O)c(F)c2)C1 (stereo not shown) [Compound 48, 2-(3-Fluoro-4-(methylsulfonamido)phenyl)-N-((2-(3-methylpiperidin-1-yl)-6-(trifluoromethyl)pyridin-3-yl)methyl)propanamide]	> 10	
CC(C(=O)NCc1ccc(C(F)(F)F)nc1N1CCN(C)CC1)c1ccc(NS(C)(=O)=O)c(F)c1 (stereo not shown) [Compound 82, 2-(3-Fluoro-4-(methylsulfonamido)phenyl)-N-((2-(4-methylpiperazin-1-yl)-6-(trifluoromethyl)pyridin-3-yl)methyl)propanamide]	> 10	
O=C(/C=C/c1ccc(C(F)(F)F)nc1N1CCCCC1)Nc1ccc2cccnc2c1 [Compound 3, reference compound]	> 10	
CC(C(=O)NCc1ccc(C(F)(F)F)nc1N1CCCCC1C)c1ccc(NS(C)(=O)=O)c(F)c1 (stereo not shown) [Compound 47, 2-(3-Fluoro-4-(methylsulfonamido)phenyl)-N-((2-(2-methylpiperidin-1-yl)-6-(trifluoromethyl)pyridin-3-yl)methyl)propanamide]	> 10	
CC(C(=O)NCc1ccc(C(F)(F)F)nc1NCc1ccccn1)c1ccc(NS(C)(=O)=O)c(F)c1 (stereo not shown) [Compound 24, 2-(3-Fluoro-4-(methylsulfonamido)phenyl)-N-((2-((pyridin-2-ylmethyl)amino)-6-(trifluoromethyl)pyridin-3-yl)methyl)propanamide]	> 10	
CC(C(=O)NCc1ccc(C(F)(F)F)nc1Nc1ccc(F)cc1)c1ccc(NS(C)(=O)=O)c(F)c1 (stereo not shown) [Compound 18, 2-(3-Fluoro-4-(methylsulfonamido)phenyl)-N-((2-((4-fluorophenyl)amino)-6-(trifluoromethyl)pyridin-3-yl)methyl)propanamide]	> 10	
C[C@H](C(=O)NCc1ccc(C(F)(F)F)nc1N1CCC[C@H]1C(=O)N(C)C)c1ccc(NS(C)(=O)=O)c(F)c1 [Compound 36, (S)-1-(3-(((S)-2-(3-Fluoro-4-(methylsulfonamido)phenyl)propanamido)methyl)-6-(trifluoromethyl)pyridin-2-yl)-N,N-dimethylpyrrolidine-2-carboxamide]	> 10	
CC(C(=O)NCc1ccc(C(F)(F)F)nc1N1CCN(C2CCCCC2)CC1)c1ccc(NS(C)(=O)=O)c(F)c1 (stereo not shown) [Compound 83, N-((2-(4-Cyclohexylpiperazin-1-yl)-6-(trifluoromethyl)pyridin-3-yl)methyl)-2-(3-fluoro-4-(methylsulfonamido)phenyl)propanamide]	> 10	
CC(C)(C)c1ccc(CNC(=S)NCc2ccc(NS(C)(=O)=O)c(F)c2)cc1 [Compound 1, reference compound]	> 10	
CC(C(=O)NCc1ccc(C(F)(F)F)nc1N1CCC(N2CCCCC2)CC1)c1ccc(NS(C)(=O)=O)c(F)c1 (stereo not shown) [Compound 75, N-((2-([1,4'-Bipiperidin]-1'-yl)-6-(trifluoromethyl)pyridin-3-yl)methyl)-2-(3-fluoro-4-(methylsulfonamido)phenyl)propanamide]	> 10	
